Measured values: paper PMC4195943, “A novel small-molecule MRCK inhibitor blocks cancer cell invasion” (Cell Communication and Signaling : CCS, 2014)

Columns and labels:
ROCK1 = ROCK1 (Homo sapiens, UniProt Q13464); test: IMAP fluorescence polarization kinase assay, ROCK1; assay type: biochemical; parameters: purchased Life Technologies; settings: in vitro, 1 μM ATP
Experimental: (§1) MRCKα, MRCKβ, ROCK1 and ROCK2 assays were performed using an IMAP fluorescence polarization assay format (Molecular Devices Inc.). 8–12 nM of each kinase (Life Technologies) was incubated for 60 min at room temperature with 100 nM FAM-S6-ribosomal protein derived peptide (synthesized by Alta Biosciences, University of Birmingham UK) in the presence of 1 μM ATP and 0.5 mM MgCl2 in 20 mM Tris buffer (pH 7.4) containing 0.01% Tween-20 and 1 mM DTT (MRCKα and β); or 1 μM ATP, 10 mM MgCl2 in 20 mM Tris buffer (pH 7.5) containing 0.25 mM EGTA 0.01% Triton X-100 and 1 mM DTT (ROCK1 and ROCK2). Typically, dose response analyses were performed over concentration ranges from 0.005 - 100 μM. Reactions were stopped by adding 2 assay volumes of 0.25% (v/v) IMAP binding reagent in 1× IMAP binding buffer A (Molecular Devices). After 30 min incubation to allow binding reagent to bind phosphorylated peptide, fluorescence polarization was measured on a Tecan Saphire^2 plate reader at excitation (470 nm) and emission (530 nm) wavelengths. Inhibition was calculated using no inhibitor and no enzyme controls as 0 and 100% inhibition, respectively.

ROCK2 = ROCK2 (Homo sapiens, UniProt O75116); test: MLC phosphorylation in MDA-MB-231 cells expressing doxycycline-induced ROCK2 kinase domain (quantitative western blot); parameters: The kinase domains of MRCKβ (1–473), ROCK1 (1–535) or ROCK2 (1–532) were gene synthesized; expressed in transfected cells; host or cells: MDA-MB-231 D3H2LN-Luc Tet3G cells, pTRE3G-ROCK2 (1–532); settings: doxycycline-induced MDA-MB-231, 60 minutes treatment; read-out: cell based EC50, MLC phosphorylation induced by ROCK2
Experimental: (A) MDA-MB-231 breast cancer cells expressing doxycycline inducible ROCK1, ROCK2 or MRCKβ kinase domains were established as indicated. Following treatment with doxycycline for 18 hours to induce expression, cell lysates were western blotted with antibodies as indicated.
MDA-MB-231 D3H2LN-Luc cells (Caliper LifeScience) were grown in MEM/EBSS (Hyclone) supplemented with 10% fetal bovine serum (FBS) (Gibco), 1 mM Sodium Pyruvate (Sigma) 2 mM L-glutamine (Gibco), 1× MEM non-essential amino acids (Gibco) plus penicillin-streptomycin (10 Units/ml and 10 μg/ml respectively) at 37°C in 5% CO2 in a humidified incubator. MDA-MB-231 D3H2LN-Luc TetOn MRCKβ, ROCK1 and ROCK2 selective cell lines were grown in the same media with 10% FBS replaced with 10% Tet System Approved FBS (Clontech).
The kinase domains of MRCKβ (1–473), ROCK1 (1–535) or ROCK2 (1–532) were gene synthesized (Genscript) and subcloned into pTRE3G (Clontech). MDA-MB-231 D3H2LN-Luc Tet3G cells were co-transfected with pTRE3G-MRCKβ (1–473), pTRE3G-ROCK1 (1–535) or pTRE3G-ROCK2 (1–532), together with a linear Pur^r-selection marker using Xfect transfection reagent according to manufacturer’s instructions. […] Each clone was treated with or without doxycycline (1 μg/ml) for 24 hours and kinase domain expression and activity determined by western blotting. […]

MRCKα = MRCKα (Homo sapiens, UniProt Q5VT25); test: IMAP fluorescence polarization kinase assay, MRCKα; assay type: biochemical; settings: calculated with Cheng-Prusoff equation
Experimental: as §1

logD = assay type: physicochemical
PRK2 = target: T1, PRK2 (Homo sapiens, UniProt Q16513); test: Kinase selectivity profiling (Eurofins), PRK2; assay type: biochemical
T1 construct: purchased Eurofins
Source text: The results of this screening were mapped over the annotated human kinome phylogenetic tree using Kinome Render (Figure 2).
Kinases inhibited less than 25% have their names in green text. Kinases inhibited >25% and ≤50% have yellow circles, >50% and ≤75% have orange circles, and >75% have red circles. In each case, the size of the circle is proportional to the percentage inhibition. ROCK1 and MRCKα positions are indicated on the tree for orientation purposes. Illustration reproduced courtesy of Cell Signaling Technology, Inc. (www.cellsignal.com).
as §1, with “Typically, dose response analyses were performed over concentration ranges from 0.005 - 100 μM. Reactions were stopped by adding 2 assay volumes of 0.25% (v/v) IMAP binding reagent in 1× IMAP binding buffer A (Molecular Devices).” left out, “Inhibition was calculated using no inhibitor and no enzyme controls as 0 and 100% inhibition, respectively.” left out

MRCKβ = target: T2, MRCKβ (Homo sapiens, UniProt Q9Y5S2); test: IMAP fluorescence polarization kinase assay, MRCKβ; assay type: biochemical; settings: in vitro, 1 μM ATP
T2 construct: purchased Life Technologies
Experimental: as §1

Sequence of ROCK2 (O75116 1-532): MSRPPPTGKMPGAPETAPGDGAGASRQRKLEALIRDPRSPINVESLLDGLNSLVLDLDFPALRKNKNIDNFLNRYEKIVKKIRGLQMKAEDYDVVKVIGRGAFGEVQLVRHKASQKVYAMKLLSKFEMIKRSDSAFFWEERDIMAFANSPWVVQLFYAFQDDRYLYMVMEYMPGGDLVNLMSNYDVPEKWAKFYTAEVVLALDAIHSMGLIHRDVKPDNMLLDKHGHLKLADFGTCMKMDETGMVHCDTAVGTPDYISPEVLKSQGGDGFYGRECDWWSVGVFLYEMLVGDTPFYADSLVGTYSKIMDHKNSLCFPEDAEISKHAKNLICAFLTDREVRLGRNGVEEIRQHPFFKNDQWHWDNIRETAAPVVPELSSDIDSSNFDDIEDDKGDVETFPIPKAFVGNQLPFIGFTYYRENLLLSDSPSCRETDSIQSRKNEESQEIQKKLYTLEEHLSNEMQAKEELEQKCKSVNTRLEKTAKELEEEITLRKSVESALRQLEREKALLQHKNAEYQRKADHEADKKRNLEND
T2 sequence (Q9Y5S2 whole entry): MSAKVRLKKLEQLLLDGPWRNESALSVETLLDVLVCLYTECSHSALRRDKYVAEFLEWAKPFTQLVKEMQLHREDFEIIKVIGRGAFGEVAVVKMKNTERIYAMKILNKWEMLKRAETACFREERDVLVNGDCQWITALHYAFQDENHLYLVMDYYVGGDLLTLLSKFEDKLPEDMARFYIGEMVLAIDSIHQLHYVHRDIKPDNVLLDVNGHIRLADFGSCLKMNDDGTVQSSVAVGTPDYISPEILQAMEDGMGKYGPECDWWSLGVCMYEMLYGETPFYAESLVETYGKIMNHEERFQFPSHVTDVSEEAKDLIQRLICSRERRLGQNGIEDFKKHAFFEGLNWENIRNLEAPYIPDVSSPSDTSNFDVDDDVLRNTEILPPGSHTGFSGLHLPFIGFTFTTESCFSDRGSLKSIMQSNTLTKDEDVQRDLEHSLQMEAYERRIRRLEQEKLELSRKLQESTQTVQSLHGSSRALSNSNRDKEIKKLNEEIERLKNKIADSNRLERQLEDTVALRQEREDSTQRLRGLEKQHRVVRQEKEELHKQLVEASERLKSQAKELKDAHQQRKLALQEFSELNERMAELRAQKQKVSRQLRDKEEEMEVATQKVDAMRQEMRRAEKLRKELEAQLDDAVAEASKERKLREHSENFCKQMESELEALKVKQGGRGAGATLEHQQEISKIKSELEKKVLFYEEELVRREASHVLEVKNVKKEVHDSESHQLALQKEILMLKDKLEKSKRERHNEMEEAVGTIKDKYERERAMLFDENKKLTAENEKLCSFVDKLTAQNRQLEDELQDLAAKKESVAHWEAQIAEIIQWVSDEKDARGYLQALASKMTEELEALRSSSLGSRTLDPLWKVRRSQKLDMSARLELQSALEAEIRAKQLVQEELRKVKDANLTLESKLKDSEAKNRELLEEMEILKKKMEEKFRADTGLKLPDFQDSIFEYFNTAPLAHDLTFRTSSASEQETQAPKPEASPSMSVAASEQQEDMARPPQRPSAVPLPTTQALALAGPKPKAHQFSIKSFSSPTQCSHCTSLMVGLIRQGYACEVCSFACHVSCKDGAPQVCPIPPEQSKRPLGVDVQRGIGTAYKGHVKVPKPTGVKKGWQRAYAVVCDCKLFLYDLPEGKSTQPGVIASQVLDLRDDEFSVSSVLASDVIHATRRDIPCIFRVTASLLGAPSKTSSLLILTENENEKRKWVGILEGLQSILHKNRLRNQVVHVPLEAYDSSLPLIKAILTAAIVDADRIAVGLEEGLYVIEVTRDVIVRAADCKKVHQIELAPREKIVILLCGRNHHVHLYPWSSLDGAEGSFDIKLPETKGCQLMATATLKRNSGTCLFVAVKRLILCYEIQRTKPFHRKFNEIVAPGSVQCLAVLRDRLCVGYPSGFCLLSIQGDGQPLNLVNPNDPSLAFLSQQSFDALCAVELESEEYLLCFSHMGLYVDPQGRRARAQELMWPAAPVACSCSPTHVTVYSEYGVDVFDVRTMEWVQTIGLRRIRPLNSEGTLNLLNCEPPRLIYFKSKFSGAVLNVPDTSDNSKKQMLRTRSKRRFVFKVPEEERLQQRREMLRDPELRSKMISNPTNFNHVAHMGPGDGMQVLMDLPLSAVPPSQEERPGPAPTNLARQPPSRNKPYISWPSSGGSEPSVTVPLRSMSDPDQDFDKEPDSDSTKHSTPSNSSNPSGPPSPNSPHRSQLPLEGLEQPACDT
T1 sequence (Q16513 whole entry): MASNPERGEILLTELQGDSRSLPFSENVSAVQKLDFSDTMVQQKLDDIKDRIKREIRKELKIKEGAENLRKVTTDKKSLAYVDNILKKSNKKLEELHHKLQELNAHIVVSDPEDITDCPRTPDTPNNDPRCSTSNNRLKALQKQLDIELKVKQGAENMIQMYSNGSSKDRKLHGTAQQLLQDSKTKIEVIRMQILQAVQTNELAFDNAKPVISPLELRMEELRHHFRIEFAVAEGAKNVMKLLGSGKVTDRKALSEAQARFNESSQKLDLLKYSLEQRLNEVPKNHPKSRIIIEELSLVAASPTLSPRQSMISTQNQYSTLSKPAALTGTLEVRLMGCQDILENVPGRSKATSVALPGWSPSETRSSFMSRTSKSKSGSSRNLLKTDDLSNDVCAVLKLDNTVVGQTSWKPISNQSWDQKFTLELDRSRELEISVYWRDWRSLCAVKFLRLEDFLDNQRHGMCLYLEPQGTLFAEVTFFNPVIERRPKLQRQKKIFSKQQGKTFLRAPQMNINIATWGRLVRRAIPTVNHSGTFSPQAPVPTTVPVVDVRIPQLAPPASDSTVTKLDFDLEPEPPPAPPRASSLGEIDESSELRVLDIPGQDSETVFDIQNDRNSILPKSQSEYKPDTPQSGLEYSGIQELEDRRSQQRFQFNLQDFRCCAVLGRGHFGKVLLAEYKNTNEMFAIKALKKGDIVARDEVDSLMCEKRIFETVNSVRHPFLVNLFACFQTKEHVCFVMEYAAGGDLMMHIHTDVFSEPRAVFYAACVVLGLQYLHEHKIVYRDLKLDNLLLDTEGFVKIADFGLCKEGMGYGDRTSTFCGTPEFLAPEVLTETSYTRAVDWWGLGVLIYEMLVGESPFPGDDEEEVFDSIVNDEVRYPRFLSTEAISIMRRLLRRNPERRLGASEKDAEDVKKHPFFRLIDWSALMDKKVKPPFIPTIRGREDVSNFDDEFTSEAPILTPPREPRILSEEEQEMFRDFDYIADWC
Sequence of MRCKα (Q5VT25 whole entry): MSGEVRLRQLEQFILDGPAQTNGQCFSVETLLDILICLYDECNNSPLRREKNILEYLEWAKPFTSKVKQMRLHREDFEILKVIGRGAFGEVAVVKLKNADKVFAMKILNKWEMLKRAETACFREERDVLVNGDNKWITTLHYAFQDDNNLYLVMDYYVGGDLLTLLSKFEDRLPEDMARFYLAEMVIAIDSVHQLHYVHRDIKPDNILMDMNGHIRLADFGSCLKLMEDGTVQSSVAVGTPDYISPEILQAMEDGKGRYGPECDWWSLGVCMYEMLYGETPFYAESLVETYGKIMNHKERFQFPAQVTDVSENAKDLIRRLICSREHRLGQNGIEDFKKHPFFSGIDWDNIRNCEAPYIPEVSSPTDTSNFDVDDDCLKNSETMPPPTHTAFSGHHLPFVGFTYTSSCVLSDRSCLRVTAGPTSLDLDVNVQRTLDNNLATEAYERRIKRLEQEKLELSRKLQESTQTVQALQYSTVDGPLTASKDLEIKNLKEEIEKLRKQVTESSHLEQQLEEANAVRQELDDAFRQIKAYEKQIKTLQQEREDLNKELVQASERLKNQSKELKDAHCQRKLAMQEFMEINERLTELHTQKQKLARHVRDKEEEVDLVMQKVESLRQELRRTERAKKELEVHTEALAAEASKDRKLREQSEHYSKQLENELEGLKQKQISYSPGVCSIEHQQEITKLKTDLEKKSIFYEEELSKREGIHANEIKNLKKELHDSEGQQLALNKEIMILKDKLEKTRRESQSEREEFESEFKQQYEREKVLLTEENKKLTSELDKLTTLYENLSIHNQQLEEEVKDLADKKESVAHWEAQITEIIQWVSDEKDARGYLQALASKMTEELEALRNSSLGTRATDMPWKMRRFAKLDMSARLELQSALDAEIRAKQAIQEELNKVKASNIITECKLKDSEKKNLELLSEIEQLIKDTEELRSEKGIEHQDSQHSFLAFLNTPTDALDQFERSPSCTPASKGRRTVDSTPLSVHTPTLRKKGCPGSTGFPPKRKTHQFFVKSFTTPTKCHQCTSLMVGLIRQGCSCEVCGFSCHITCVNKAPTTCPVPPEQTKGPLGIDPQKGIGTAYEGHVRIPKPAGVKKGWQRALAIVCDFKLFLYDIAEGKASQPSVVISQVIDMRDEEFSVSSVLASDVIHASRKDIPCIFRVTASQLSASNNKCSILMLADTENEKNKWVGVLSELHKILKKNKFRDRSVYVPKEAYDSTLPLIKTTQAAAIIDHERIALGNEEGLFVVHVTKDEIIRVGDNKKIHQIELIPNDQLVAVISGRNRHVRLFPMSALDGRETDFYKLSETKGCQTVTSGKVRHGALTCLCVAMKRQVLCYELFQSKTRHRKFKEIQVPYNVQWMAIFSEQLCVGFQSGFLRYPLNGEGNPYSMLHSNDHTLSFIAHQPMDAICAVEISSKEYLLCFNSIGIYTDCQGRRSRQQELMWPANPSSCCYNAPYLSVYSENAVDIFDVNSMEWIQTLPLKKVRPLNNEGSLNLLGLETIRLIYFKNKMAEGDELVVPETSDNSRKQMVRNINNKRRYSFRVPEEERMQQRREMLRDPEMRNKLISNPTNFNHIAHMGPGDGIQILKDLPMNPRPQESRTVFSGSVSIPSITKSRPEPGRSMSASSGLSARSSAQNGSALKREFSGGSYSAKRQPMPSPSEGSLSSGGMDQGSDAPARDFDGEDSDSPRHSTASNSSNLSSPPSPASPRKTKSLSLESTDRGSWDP

SMILES	IC50 (ROCK1) [nM]	EC50 (ROCK2) [nM]	Ki (MRCKα) [nM]	logD (logD)	inhibition at 10 µM (PRK2) [%]	IC50 (MRCKβ) [nM]
O=C(Nc1cn[nH]c1-c1ccccn1)c1nn(C2CCNCC2)cc1Cl [BDP5290, 4-chloro-1-(4-piperidyl)-N-[5-(2-pyridyl)-1H-pyrazol-4-yl]pyrazole-3-carboxamide]	230	447	10	0.786	> 75	–
C[C@@H](N)[C@H]1CC[C@H](C(=O)Nc2ccncc2)CC1 [Y27632, reference compound]	–	–	–	–	–	1450
